Data taken from US10696615B2, “Prenylated hydroxystilbenes” (The University of Sydney, priority 2011, dated 2020).

Tests used:
Format in all cases: cell-based, human
CCRF-CEM = test: NCI in vitro cancer screen, Leukemia; conditions: for GI50 / CC50: Homo sapiens; for CC50: read-out: LC50 (the source's name)
HS 578T = test: NCI in vitro cancer screen, Breast Cancer; conditions: for GI50 / CC50: Homo sapiens; for CC50: read-out: LC50 (the source's name)
SNB-19 = test: NCI in vitro cancer screen, CNS Cancer; conditions: SNB-19; for GI50 / CC50: Homo sapiens; for CC50: read-out: LC50 (the source's name)
NCI-H226 = test: NCI in vitro cancer screen, Non-Small Cell Lung Cancer; conditions: NCI-H226; for GI50 / LC50 (50% lethal concentration): Homo sapiens
ADR-RES (NCI/ADR-RES) = test: NCI in vitro cancer screen, Ovarian Cancer; conditions: for TGI: ADR-RES; for GI50 / CC50: Homo sapiens, NCI/ADR-RES; for CC50: read-out: LC50 (the source's name)
HCC-2998 = test: NCI in vitro cancer screen, Colon Cancer; conditions: HCC-2998; for GI50 / CC50: Homo sapiens; for CC50: read-out: LC50 (the source's name)
786-0 = test: NCI in vitro cancer screen, Renal Cancer; conditions: 786-0; for GI50 / LC50 (50% net cell kill): Homo sapiens
MALME-3M = test: NCI in vitro cancer screen, Melanoma; conditions: for GI50 / CC50: Homo sapiens, Malme-3M; for CC50: read-out: LC50 (the source's name); for TGI: MALME-3M
K-562 = test: NCI in vitro cancer screen, Leukemia; conditions: K-562; for GI50 / CC50: Homo sapiens, K562; for CC50: read-out: LC50 (the source's name)
DU-145 = test: NCI in vitro cancer screen, Prostate Cancer; conditions: DU-145; for GI50 / CC50: Homo sapiens; for CC50: read-out: LC50 (the source's name)
HCT-116 = test: NCI in vitro cancer screen, Colon Cancer; conditions: HCT-116; for GI50 / LC50 (concentration killing 50% of cells): Homo sapiens
MDA-MB-435 = test: NCI in vitro cancer screen, Melanoma; conditions: MDA-MB-435; for GI50 / CC50: Homo sapiens; for CC50: read-out: LC50 (the source's name)
U251 = test: NCI in vitro cancer screen, CNS Cancer; conditions: U251; for GI50 / CC50: Homo sapiens, U-251; for CC50: read-out: LC50 (the source's name)
SK-OV-3 = test: NCI in vitro cancer screen, Ovarian Cancer; conditions: SK-OV-3; for GI50 / CC50: Homo sapiens; for CC50: read-out: LC50 (the source's name)
UACC-62 = test: NCI in vitro cancer screen, Melanoma; conditions: UACC-62; for GI50 / CC50: Homo sapiens; for CC50: read-out: LC50 (the source's name)
SK-MEL-5 = test: NCI in vitro cancer screen, Melanoma; conditions: SK-MEL-5; for GI50 / CC50: Homo sapiens; for CC50: read-out: LC50 (the source's name)
CAKI-1 = test: NCI in vitro cancer screen, Renal Cancer; conditions: CAKI-1; for GI50 / CC50: Homo sapiens; for CC50: read-out: LC50 (the source's name)
HOP-62 = test: NCI in vitro cancer screen, Non-Small Cell Lung Cancer; conditions: HOP-62; for GI50 / CC50: Homo sapiens; for CC50: read-out: LC50 (the source's name)
NCI-H460 = test: as above; conditions: NCI-H460; for GI50 / CC50: Homo sapiens; for CC50: read-out: LC50 (the source's name)
NCI-H23 = test: as above; conditions: NCI-H23; for GI50 / LC50: Homo sapiens
MDA-MB-468 = test: NCI in vitro cancer screen, Breast Cancer; conditions: MDA-MB-468; for GI50 / CC50: Homo sapiens; for CC50: read-out: LC50 (the source's name)
IGROV1 = test: NCI in vitro cancer screen, Ovarian Cancer; conditions: IGROV1; for GI50 / CC50: Homo sapiens, IGROV-1; for CC50: read-out: LC50 (the source's name)
SW-620 = test: NCI in vitro cancer screen, Colon Cancer; conditions: SW-620; for GI50 / CC50: Homo sapiens; for CC50: read-out: LC50 (the source's name)
SF-295 = test: NCI in vitro cancer screen, CNS Cancer; conditions: SF-295; for GI50 / CC50: Homo sapiens; for CC50: read-out: LC50 (the source's name)
ACHN = test: NCI in vitro cancer screen, Renal Cancer; conditions: for GI50 / CC50: Homo sapiens; for CC50: read-out: LC50 (the source's name)
TK-10 = test: NCI in vitro cancer screen, Renal Cancer; conditions: TK-10; for GI50 / LC50: Homo sapiens
OVCAR-3 = test: NCI in vitro cancer screen, Ovarian Cancer; conditions: OVCAR-3; for GI50 / CC50: Homo sapiens; for CC50: read-out: LC50 (the source's name)

CC(C)=CCc1c(O)cc(/C=C/c2ccc(O)c(O)c2)c(CC=C(C)C)c1O [USYDS7, (E)-2,4-di(3-methyl-2-buten-1-yl)-3,3′,4′,5-tetrahydroxystilbene]
TGI (CCRF-CEM): 8.48 µM
GI50 (CCRF-CEM): 2.73 µM
CC50 (CCRF-CEM): 71.2 µM
TGI (HS 578T): 8.09 µM
GI50 (HS 578T): 1.84 µM
CC50 (HS 578T): 50.9 µM
GI50 (SNB-19): 2.8 µM
CC50 (SNB-19): 39.9 µM
TGI (SNB-19): 8.64 µM
GI50 (NCI-H226): 2.28 µM
LC50 (50% lethal concentration) (NCI-H226): 28.1 µM
TGI (NCI-H226): 6.24 µM
TGI (ADR-RES (NCI/ADR-RES)): 7.90 µM
GI50 (ADR-RES (NCI/ADR-RES)): 2.23 µM
CC50 (ADR-RES (NCI/ADR-RES)): 42.4 µM
TGI (HCC-2998): 4.26 µM
GI50 (HCC-2998): 1.95 µM
CC50 (HCC-2998): 9.34 µM
TGI (786-0): 4.47 µM
GI50 (786-0): 1.99 µM
LC50 (50% net cell kill) (786-0): 10.2 µM
GI50 (MALME-3M): 1.97 µM
CC50 (MALME-3M): 10.4 µM
TGI (MALME-3M): 4.46 µM
GI50 (K-562): 2.14 µM
CC50 (K-562): 17.4 µM
TGI (K-562): 4.78 µM
TGI (DU-145): 7.62 µM
GI50 (DU-145): 2.65 µM
CC50 (DU-145): 28.3 µM
TGI (HCT-116): 3.02 µM
GI50 (HCT-116): 1.57 µM
LC50 (concentration killing 50% of cells) (HCT-116): 5.82 µM
GI50 (MDA-MB-435): 2.29 µM
CC50 (MDA-MB-435): 31.7 µM
TGI (MDA-MB-435): 6.47 µM
GI50 (U251): 1.49 µM
CC50 (U251): 5.74 µM
TGI (U251): 2.93 µM
GI50 (SK-OV-3): 5.98 µM
CC50 (SK-OV-3): 46.5 µM
TGI (SK-OV-3): 19.4 µM
GI50 (UACC-62): 2.8 µM
CC50 (UACC-62): 31.5 µM
TGI (UACC-62): 7.84 µM
GI50 (SK-MEL-5): 1.8 µM
CC50 (SK-MEL-5): 7.54 µM
TGI (SK-MEL-5): 3.68 µM
TGI (CAKI-1): 16.2 µM
GI50 (CAKI-1): 4.24 µM
CC50 (CAKI-1): 49 µM
TGI (HOP-62): 15.0 µM
GI50 (HOP-62): 3.67 µM
CC50 (HOP-62): 51.6 µM
GI50 (NCI-H460): 1.64 µM
CC50 (NCI-H460): 6.33 µM
TGI (NCI-H460): 3.22 µM
GI50 (NCI-H23): 1.81 µM
LC50 (NCI-H23): 29.5 µM
TGI (NCI-H23): 5.22 µM
GI50 (MDA-MB-468): 2.12 µM
CC50 (MDA-MB-468): 13.9 µM
TGI (MDA-MB-468): 4.84 µM
GI50 (IGROV1): 3.12 µM
CC50 (IGROV1): 36.7 µM
TGI (IGROV1): 8.39 µM
GI50 (SW-620): 1.58 µM
CC50 (SW-620): 6.42 µM
TGI (SW-620): 3.19 µM
GI50 (SF-295): 3.37 µM
CC50 (SF-295): 44.6 µM
TGI (SF-295): 11.4 µM
TGI (ACHN): 9.12 µM
GI50 (ACHN): 2.58 µM
CC50 (ACHN): 37.6 µM
GI50 (TK-10): 3.62 µM
LC50 (TK-10): 34.3 µM
TGI (TK-10): 11.2 µM
GI50 (OVCAR-3): 1.82 µM
CC50 (OVCAR-3): 6.19 µM
TGI (OVCAR-3): 3.36 µM

COc1cc(O)cc(/C=C/c2ccc(O)c(O)c2)c1CC=C(C)C [USYDS9, (E)-2-(3-methyl-2-buten-1-yl)-3′,4′,5-trihydroxy-3-methoxystilbene]
TGI (CCRF-CEM): >100 µM
GI50 (CCRF-CEM): 2.14 µM
CC50 (CCRF-CEM): > 100 µM
TGI (HS 578T): 0.73 µM
GI50 (HS 578T): 0.2 µM
CC50 (HS 578T): > 100 µM
GI50 (SNB-19): 0.55 µM
CC50 (SNB-19): > 100 µM
TGI (SNB-19): >100 µM
GI50 (NCI-H226): 18.6 µM
LC50 (50% lethal concentration) (NCI-H226): > 100 µM
TGI (NCI-H226): 57.9 µM
TGI (ADR-RES (NCI/ADR-RES)): 3.69 µM
GI50 (ADR-RES (NCI/ADR-RES)): 0.29 µM
CC50 (ADR-RES (NCI/ADR-RES)): > 100 µM
TGI (HCC-2998): 21.2 µM
GI50 (HCC-2998): 4.18 µM
CC50 (HCC-2998): > 100 µM
TGI (786-0): 18.7 µM
GI50 (786-0): 2.99 µM
LC50 (50% net cell kill) (786-0): > 100 µM
GI50 (MALME-3M): 0.62 µM
CC50 (MALME-3M): > 100 µM
TGI (MALME-3M): >100 µM
GI50 (K-562): 0.33 µM
CC50 (K-562): > 100 µM
TGI (K-562): 13.9 µM
TGI (DU-145): 2.62 µM
GI50 (DU-145): 0.35 µM
CC50 (DU-145): > 100 µM
TGI (HCT-116): 12.8 µM
GI50 (HCT-116): 1.4 µM
LC50 (concentration killing 50% of cells) (HCT-116): 75 µM
GI50 (MDA-MB-435): 0.13 µM
CC50 (MDA-MB-435): > 100 µM
TGI (MDA-MB-435): 0.42 µM
GI50 (U251): 0.59 µM
CC50 (U251): > 100 µM
TGI (U251): 19.6 µM
GI50 (SK-OV-3): 0.5 µM
CC50 (SK-OV-3): > 100 µM
TGI (SK-OV-3): 5.12 µM
GI50 (UACC-62): 3.22 µM
CC50 (UACC-62): > 100 µM
TGI (UACC-62): 34.8 µM
GI50 (SK-MEL-5): 0.39 µM
CC50 (SK-MEL-5): > 100 µM
TGI (SK-MEL-5): 2.52 µM
TGI (CAKI-1): >100 µM
GI50 (CAKI-1): 19.1 µM
CC50 (CAKI-1): > 100 µM
TGI (HOP-62): >100 µM
GI50 (HOP-62): 2.87 µM
CC50 (HOP-62): > 100 µM
GI50 (NCI-H460): 0.47 µM
CC50 (NCI-H460): 75.7 µM
TGI (NCI-H460): 10.3 µM
GI50 (NCI-H23): 1.43 µM
LC50 (NCI-H23): > 100 µM
TGI (NCI-H23): >100 µM
GI50 (MDA-MB-468): 2.42 µM
CC50 (MDA-MB-468): > 100 µM
TGI (MDA-MB-468): 8.48 µM
GI50 (IGROV1): 4.57 µM
CC50 (IGROV1): > 100 µM
TGI (IGROV1): >100 µM
GI50 (SW-620): 0.31 µM
CC50 (SW-620): 75 µM
TGI (SW-620): 15.3 µM
GI50 (SF-295): 2.6 µM
CC50 (SF-295): > 100 µM
TGI (SF-295): 20.5 µM
TGI (ACHN): >100 µM
GI50 (ACHN): 0.66 µM
CC50 (ACHN): > 100 µM
GI50 (TK-10): 5.34 µM
LC50 (TK-10): > 100 µM
TGI (TK-10): 41.2 µM
GI50 (OVCAR-3): 0.9 µM
CC50 (OVCAR-3): 24.8 µM
TGI (OVCAR-3): 3.84 µM
